This is an account of results in article PMC9019904, “AD Informer Set: Chemical tools to facilitate Alzheimer's disease drug discovery” (Alzheimer's & Dementia : Translational Research & Clinical …, 2022).

A short description of data set [1]: Kinetic solubility in aqueous buffer pH 7.4 by total chemiluminescent nitrogen determination (Analiza). Particulars: aqueous buffer, pH 7.4, aqueous buffer, kinetic from dmso stock.
Data set [2] deals with cellular system. Particulars: published cellular activity at 10 μM; cited from earlier work.
Data set [3] deals with BV2 (mouse microglia) cell line. Description: pHrodo-myelin phagocytosis/cell viability high content imaging assay: phagocytosis signal. The class given is cell-based. The settings on record: BV2 cells, 10 μM. The procedure, abridged:
(§1)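 Cells receive pHrodo-myelin, then are imaged at high content approximately 22 hours later. Phagocytosis signal and viability are captured in the same run. Three measurements are extracted per well.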

Data set [4] has as its system HMC3 (human microglia) cell line. Described as above. The settings on record: HMC3 cells, 10 μM. Format: cell-based. A digest of the protocol: as §1
For data set [5], the system named is BV2 (mouse microglia) cell line. Description: pHrodo-myelin phagocytosis/cell viability high content imaging assay: viability (cell count, nuclear area, nuclear intensity). Particulars: BV2 cells, 10 μM, cell count <70% control. A digest of the protocol: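 10 μM single dose, 48 h total; pHrodo-myelin present final 20 h. Read-out: automated imaging, total cell count/well, mean nuclear intensity/cell. n=2, normalized to untreated wells, % control.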

SMILES strings stand for the structures. Converted amounts (≈) assume the structure as drawn. Where only a bound is given, the exact number is not on record here.

For the molecule `Nc1ncnc2c1nc(Sc1ccc(Cl)cc1)n2[C@@H]1O[C@@H]2COP(=O)([O-])O[C@H]2[C@H]1O.[Na+]` [pCPT-cAMP], the kinetic solubility in data set [1] was found to be 135 µM. For the same molecule, in data set [2], the “Reported as cell active (<10 μM)” value is “Y (Published data supports that the compound is active in a cellular system when dosed at 10 μM (Y/N))”.

Regarding `CC(=O)c1nc([C@@H](O)[C@H](O)[C@H](O)CO)c[nH]1` [THI], the kinetic solubility in data set [1] worked out at 186 µM (≈ 42.8 µg/mL). Besides, the “Reported as cell active (<10 μM)” value in data set [2] is recorded as “Y (Published data supports that the compound is active in a cellular system when dosed at 10 μM (Y/N))”. The “Stimulation of mouse microglial phagocytosis at 10 μM (>150% control)” value (shortened to “Stimulation … (>150% control)”) in data set [3] is “Y (The compound was found to stimulate phagocytosis (response threshold: >150% control) when murine immortalized microglial cells were dosed at 10 μM (Y: yes))”.

On to `Cc1cc(C)nc(NC(=S)N2CCN(Cc3ccc(C(F)(F)F)cc3)CC2)c1` [NCT-503], for which the kinetic solubility in data set [1] turned out to be 34.3 µM (≈ 14 µg/mL). Moreover, the “Reported as cell active (<10 μM)” value in data set [2] was “Y (Published data supports that the compound is active in a cellular system when dosed at 10 μM (Y/N))”. In data set [3], the “Stimulation … (>150% control)” value was “Y (The compound was found to stimulate phagocytosis (response threshold: >150% control) when murine immortalized microglial cells were dosed at 10 μM (Y: yes))”.

The molecule `Nc1ncnc2c1nc(Br)n2[C@@H]1O[C@@H]2COP(=O)([O-])O[C@H]2[C@H]1O.[Na+]` [8-Bromo-cAMP (sodium salt)] returned a kinetic solubility in data set [1] of 166 µM. Besides, the “Reported as cell active (<10 μM)” value in data set [2] is “Y (Published data supports that the compound is active in a cellular system when dosed at 10 μM (Y/N))”. The “Stimulation … (>150% control)” value in data set [3] was “Y (The compound was found to stimulate phagocytosis (response threshold: >150% control) when murine immortalized microglial cells were dosed at 10 μM (Y: yes))”.

`C[C@@H]1O[C@@H](O[C@H]2[C@H](Oc3cc(O)c4c(c3)O[C@H](c3ccc(O)cc3)CC4=O)O[C@H](CO)[C@@H](O)[C@@H]2O)[C@H](O)[C@H](O)[C@H]1O` [Naringin]: the “Reported as cell active (<10 μM)” value in data set [2] was “Y (Published data supports that the compound is active in a cellular system when dosed at 10 μM (Y/N))”. Further, in data set [4], the “Inhibition of human microglial phagocytosis at 10 μM (<70% control)” value is “Y (The compound was found to inhibit phagocytosis (response threshold: <70% control) when human immortalized microglial cells were dosed at 10 μM (Y: yes))”. Further, the “Stimulation … (>150% control)” value in data set [3] was “Y (The compound was found to stimulate phagocytosis (response threshold: >150% control) when murine immortalized microglial cells were dosed at 10 μM (Y: yes))”.

Molecule `CN(CCOc1ccc(CC2SC(=O)NC2=O)cc1)c1ccccn1` (stereo not shown) [Rosiglitazone] returned a kinetic solubility in data set [1] of 57 µM (≈ 20.4 µg/mL). In data set [2], the “Reported as cell active (<10 μM)” value is “Y (Published data supports that the compound is active in a cellular system when dosed at 10 μM (Y/N))”.

`C[C@H](CCCC(C)(C)O)[C@H]1CC[C@H]2[C@@H]3CC=C4C[C@@H](O)CC[C@]4(C)[C@H]3CC[C@]12C` [25-Hydroxycholesterol]: in data set [2], the “Reported as cell active (<10 μM)” value is on record as “Y (Published data supports that the compound is active in a cellular system when dosed at 10 μM (Y/N))”. In addition, the “Inhibition of human microglial phagocytosis at 10 μM (<70% control)” value in data set [4] is on record as “Y (The compound was found to inhibit phagocytosis (response threshold: <70% control) when human immortalized microglial cells were dosed at 10 μM (Y: yes))”. For the same molecule, the “Inhibition of mouse microglial phagocytosis at 10 μM (<70% control)” value in data set [3] is listed as “Y (The compound was found to inhibit phagocytosis (response threshold: <70% control) when murine immortalized microglial cells were dosed at 10 μM (Y: yes))”.

Take `CCCCCCCCCCCCCCCCOCC(COCC(F)(F)F)OP(=O)([O-])OC.[Li+]` (stereo not shown) [MJ-33 (lithium salt)]: the “Reported as cell active (<10 μM)” value in data set [2] is on record as “Y (Published data supports that the compound is active in a cellular system when dosed at 10 μM (Y/N))”. In data set [4], the “Inhibition of human microglial phagocytosis at 10 μM (<70% control)” value is listed as “Y (The compound was found to inhibit phagocytosis (response threshold: <70% control) when human immortalized microglial cells were dosed at 10 μM (Y: yes))”.

For the molecule `Cc1cc2c(cc1C1(c3ccc(C(=O)O)cn3)CC1)C(C)(C)CCC2(C)C` [LG 100268], the kinetic solubility in data set [1] stood at 92.8 µM (≈ 33.7 µg/mL). The “Reported as cell active (<10 μM)” value in data set [2] was “Y (Published data supports that the compound is active in a cellular system when dosed at 10 μM (Y/N))”.

As for `O=C1CCc2cc(OCCCCc3nnnn3C3CCCCC3)ccc2N1` [Cilostazol (OPC 13013)], in data set [1], the solubility (kinetic) is 58.5 µM (≈ 21.6 µg/mL). Moreover, the “Reported as cell active (<10 μM)” value in data set [2] was “Y (Published data supports that the compound is active in a cellular system when dosed at 10 μM (Y/N))”.

For the molecule `Cc1c(COc2cc(OCc3cccc(C#N)c3)c(CN3C[C@H](O)C[C@@H]3C(=O)O)cc2Cl)cccc1-c1ccc2c(c1)OCCO2` [BMS-1166], the solubility (kinetic) in data set [1] was found to be 2.1 µM (≈ 1.35 µg/mL). Further, the “Reported as cell active (<10 μM)” value in data set [2] is reported as “Y (Published data supports that the compound is active in a cellular system when dosed at 10 μM (Y/N))”.

For the molecule `Cc1cc(C)nc(NS(=O)(=O)c2ccc(NC(=O)NC(=O)c3ccc(Cl)cc3Cl)cc2)n1` [LDN-193188], in data set [1], the solubility (kinetic) worked out at 7.1 µM (≈ 3.51 µg/mL). The “Reported as cell active (<10 μM)” value in data set [2] is reported as “Y (Published data supports that the compound is active in a cellular system when dosed at 10 μM (Y/N))”.

Molecule `CN1c2ccc([N+](=O)[O-])cc2N=C(c2ccc(C(=O)O)cc2)c2cc3c(cc21)C(C)(C)CCC3(C)C` [HX531] gave a kinetic solubility in data set [1] of less than 0.7 µM. In data set [2], the “Reported as cell active (<10 μM)” value was “Y (Published data supports that the compound is active in a cellular system when dosed at 10 μM (Y/N))”. Further, the “Mouse microglial cytotoxicity at 10 μM (<70% control)” value in data set [5] is on record as “Y (The compound was found to be cytotoxic (cell count threshold: <70% control) when murine immortalized microglial cells were dosed at 10 μM (Y: yes))”.

With `CC(=O)O[C@@H]1[C@@H](OC(C)=O)[C@@H](O)[C@H](Oc2c(-c3ccc(O)cc3)oc3cc(O)cc(O)c3c2=O)O[C@H]1C` [SL0101], the “Reported as cell active (<10 μM)” value in data set [2] is given as “Y (Published data supports that the compound is active in a cellular system when dosed at 10 μM (Y/N))”. Besides, the “Inhibition of human microglial phagocytosis at 10 μM (<70% control)” value in data set [4] is listed as “Y (The compound was found to inhibit phagocytosis (response threshold: <70% control) when human immortalized microglial cells were dosed at 10 μM (Y: yes))”.

`C=CC[N+]1([C@H]2C[C@H]3[C@@H]4CC[C@H]5C[C@H](O)[C@@H](N6CCOCC6)C[C@]5(C)[C@H]4CC[C@]3(C)[C@H]2OC(C)=O)CCCC1` [Rocuronium Bromide]: the “Reported as cell active (<10 μM)” value in data set [2] is “Y (Published data supports that the compound is active in a cellular system when dosed at 10 μM (Y/N))”. In addition, the “Inhibition of human microglial phagocytosis at 10 μM (<70% control)” value in data set [4] is reported as “Y (The compound was found to inhibit phagocytosis (response threshold: <70% control) when human immortalized microglial cells were dosed at 10 μM (Y: yes))”.

In data set [1], `CCc1ccc(CCOc2ccc(CC3SC(=O)NC3=O)cc2)nc1` (stereo not shown) [Pioglitazone] gave a kinetic solubility of 3.2 µM (≈ 1.14 µg/mL). Also, the “Reported as cell active (<10 μM)” value in data set [2] is on record as “Y (Published data supports that the compound is active in a cellular system when dosed at 10 μM (Y/N))”.

On to `COc1ccc(CCN2CCN(CCCc3ccccc3)CC2)cc1OC.Cl.Cl` [Cutamesine (SA 4503)], for which the kinetic solubility in data set [1] was determined as 108 µM. Besides, the “Reported as cell active (<10 μM)” value in data set [2] is “Y (Published data supports that the compound is active in a cellular system when dosed at 10 μM (Y/N))”.

By kinetic solubility is commonly meant solubility judged after dilution from a stock solution rather than from solid.
